Source: patent publication US9527832B2, “Substituted condensed pyrimidine compounds” (GRÜNENTHAL GMBH, priority 2013, dated 2016)

Target: T1, human PDE4B1 (Homo sapiens, UniProt Q07343)
T1 construct: host or cells: Sf9 cells
Assay: cAMP HTRF assay to determine the activity of hPDE4B1
Assay type: biochemical
Details: for inhibition at 1 µM: Percentage inhibition of PDE4B at 1 μM test concentration; for IC50: dose response measurements with eight concentrations, reported as ranges, read-out: IC50; for inhibition at 0.1 µM: Percentage inhibition of PDE4B at 0.1 μM test concentration, read-out: Inhibition [%] (inh. at 0.1 μM)
Method in brief: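 Sf9-expressed recombinant human PDE4B1 (4.8 U) in Tris-HCl/MgCl2/DTT/Tween 20 buffer pH 7.8, with cAMP at 40 nM final, 30 min at room temperature. Reaction stopped with IBMX 1 mM; remaining cAMP detected by HTRF (665/620 nm ratio). IC50 from eight-point dose-response, n=2.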

T1 sequence (Q07343 whole entry): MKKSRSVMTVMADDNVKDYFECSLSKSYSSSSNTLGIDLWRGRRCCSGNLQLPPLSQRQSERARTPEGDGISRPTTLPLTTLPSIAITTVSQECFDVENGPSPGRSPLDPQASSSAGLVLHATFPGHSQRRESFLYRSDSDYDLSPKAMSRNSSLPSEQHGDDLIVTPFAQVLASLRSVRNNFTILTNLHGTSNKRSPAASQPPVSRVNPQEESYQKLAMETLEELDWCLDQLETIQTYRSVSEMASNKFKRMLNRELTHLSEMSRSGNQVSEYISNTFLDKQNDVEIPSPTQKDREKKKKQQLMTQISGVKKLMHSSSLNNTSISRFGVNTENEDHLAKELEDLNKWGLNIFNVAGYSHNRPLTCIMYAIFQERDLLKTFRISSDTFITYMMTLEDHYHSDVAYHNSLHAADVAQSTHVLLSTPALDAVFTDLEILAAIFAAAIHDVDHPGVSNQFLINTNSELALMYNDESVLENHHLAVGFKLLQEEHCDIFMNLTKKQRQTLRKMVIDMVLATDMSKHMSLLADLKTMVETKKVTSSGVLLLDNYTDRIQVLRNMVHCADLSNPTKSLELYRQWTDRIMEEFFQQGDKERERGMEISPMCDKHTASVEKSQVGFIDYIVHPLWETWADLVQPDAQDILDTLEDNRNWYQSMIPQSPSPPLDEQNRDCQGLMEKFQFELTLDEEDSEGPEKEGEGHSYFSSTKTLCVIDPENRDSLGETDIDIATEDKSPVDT

SMILES	inhibition at 1 µM	IC50	inhibition at 0.1 µM
NC(=O)COc1ccc2c(c1)N(c1nc(-c3ccc(Cl)s3)nc3c1CS(=O)(=O)C3)CC2 [Compound No. 2-59, 2-((1-(2-(5-Chlorothiophen-2-yl)-6,6-dioxido-5,7-dihydrothieno[3,4-d]pyrimidin-4-yl)indolin-6-yl)oxy)acetamide]	76%	100 to 1000 nM	
O=C(COc1ccc2c(c1)N(c1nc(-c3ccc(Cl)s3)nc3c1CS(=O)(=O)C3)CC2)NC1COC1 [Compound No. 2-60, 2-((1-(2-(5-Chlorothiophen-2-yl)-6,6-dioxido-5,7-dihydrothieno[3,4-d]pyrimidin-4-yl)indolin-6-yl)oxy)-N-(oxetan-3-yl)acetamide]	75%	100 to 1000 nM	
O=C(COc1ccc2c(c1)N(c1nc(-c3ccc(Cl)s3)nc3c1CS(=O)(=O)C3)CC2)NC1CC1 [Compound No. 2-61, 2-((1-(2-(5-Chlorothiophen-2-yl)-6,6-dioxido-5,7-dihydrothieno[3,4-d]pyrimidin-4-yl)indolin-6-yl)oxy)-N-cyclopropylacetamide]	60%	< 100 nM	
CN(C(=O)COc1ccc2c(c1)N(c1nc(-c3ccc(Cl)s3)nc3c1CCC3)CC2)C1CC1 [Compound No. 2-64, 2-((1-(2-(5-Chlorothiophen-2-yl)-6,7-dihydro-5H-cyclopenta[d]pyrimidin-4-yl)indolin-6-yl)oxy)-N-cyclopropyl-N-methylacetamide]	65%	100 to 1000 nM	
O=C(COc1ccc2c(c1)N(c1nc(-c3ccc(Cl)s3)nc3c1CCC3)CC2)NC1COC1 [Compound No. 2-65, 2-((1-(2-(5-Chlorothiophen-2-yl)-6,7-dihydro-5H-cyclopenta[d]pyrimidin-4-yl)indolin-6-yl)oxy)-N-(oxetan-3-yl)acetamide]	5%		
CC(C)NC(=O)COc1ccc2c(c1)N(c1nc(-c3ccc(Cl)s3)nc3c1CCC3)CC2 [Compound No. 2-66, 2-((1-(2-(5-Chlorothiophen-2-yl)-6,7-dihydro-5H-cyclopenta[d]pyrimidin-4-yl)indolin-6-yl)oxy)-N-isopropylacetamide]	32%		
CN(CC1CC1)C(=O)COc1ccc2c(c1)N(c1nc(-c3ccc(Cl)s3)nc3c1CCC3)CC2 [Compound No. 2-67, 2-((1-(2-(5-Chlorothiophen-2-yl)-6,7-dihydro-5H-cyclopenta[d]pyrimidin-4-yl)indolin-6-yl)oxy)-N-(cyclopropylmethyl)-N-methylacetamide]	6%		
CCNC(=O)COc1ccc2c(c1)N(c1nc(-c3ccc(Cl)s3)nc3c1CCC3)CC2 [Compound No. 2-68, 2-((1-(2-(5-Chlorothiophen-2-yl)-6,7-dihydro-5H-cyclopenta[d]pyrimidin-4-yl)indolin-6-yl)oxy)-N-ethylacetamide]	2%		
O=C(COc1ccc2c(c1)N(c1nc(-c3ccc(Cl)s3)nc3c1CCC3)CC2)NCCO [Compound No. 2-69, 2-((1-(2-(5-Chlorothiophen-2-yl)-6,7-dihydro-5H-cyclopenta[d]pyrimidin-4-yl)indolin-6-yl)oxy)-N-(2-hydroxyethyl)acetamide]	4%		
CNC(=O)COc1ccc2c(c1)N(c1nc(-c3ccc(Cl)s3)nc3c1CCC3)CC2 [Compound No. 2-70, 2-((1-(2-(5-Chlorothiophen-2-yl)-6,7-dihydro-5H-cyclopenta[d]pyrimidin-4-yl)indolin-6-yl)oxy)-N-methylacetamide]	23%		
NC(=O)COc1ccc2c(c1)N(c1nc(-c3ccc(Cl)s3)nc3c1CCC3)CC2 [Compound No. 2-71, 2-((1-(2-(5-Chlorothiophen-2-yl)-6,7-dihydro-5H-cyclopenta[d]pyrimidin-4-yl)indolin-6-yl)oxy)acetamide]	14%		
CN(C)C(=O)COc1ccc2cnn(-c3nc(-c4ccc(Cl)s4)nc4c3C[S+]([O-])C4)c2c1 (stereo not shown) [Compound No. 2-72, 2-((1-(2-(5-Chlorothiophen-2-yl)-6-oxido-5,7-dihydrothieno[3,4-d]pyrimidin-4-yl)-1H-indazol-6-yl)oxy)-N,N-dimethylacetamide]	102%	< 100 nM	
CN(C)C(=O)COc1ccc2ccn(-c3nc(-c4ccc(Cl)s4)nc4c3C[S+]([O-])C4)c2c1 (stereo not shown) [Compound No. 2-73, 2-((1-(2-(5-Chlorothiophen-2-yl)-6-oxido-5,7-dihydrothieno[3,4-d]pyrimidin-4-yl)-1H-indol-6-yl)oxy)-N,N-dimethylacetamide]	116%	< 100 nM	
CN(C)C(=O)COc1ccc2c(c1)N(c1nc(-c3ccc(C#N)c(F)c3)nc3c1C[S+]([O-])C3)CC2 (stereo not shown) [Compound No. 2-77, 2-((1-(2-(4-Cyano-3-fluorophenyl)-6-oxido-5,7-dihydrothieno[3,4-d]pyrimidin-4-yl)indolin-6-yl)oxy)-N,N-dimethylacetamide]	92%	< 100 nM	
CN(C)C(=O)COc1ccc2c(c1)N(c1nc(-c3ccc(Cl)c(F)c3)nc3c1C[S+]([O-])C3)CC2 (stereo not shown) [Compound No. 2-78, 2-((1-(2-(4-Chloro-3-fluorophenyl)-6-oxido-5,7-dihydrothieno[3,4-d]pyrimidin-4-yl)indolin-6-yl)oxy)-N,N-dimethylacetamide]	105%	< 100 nM	
CN(C)C(=O)COc1ccc2c(c1)N(c1nc(-c3ccc(O)c(F)c3)nc3c1C[S+]([O-])C3)CC2 (stereo not shown) [Compound No. 2-79, 2-((1-(2-(3-Fluoro-4-hydroxyphenyl)-6-oxido-5,7-dihydrothieno[3,4-d]pyrimidin-4-yl)indolin-6-yl)oxy)-N,N-dimethylacetamide]	92%	< 100 nM	
CN(C)C(=O)COc1ccc2c(c1)N(c1nc(-c3ccc(C(N)=O)s3)nc3c1C[S+]([O-])C3)CC2 (stereo not shown) [Compound No. 2-80, 5-(4-(6-(2-(Dimethylamino)-2-oxoethoxy)indolin-1-yl)-6-oxido-5,7-dihydrothieno[3,4-d]pyrimidin-2-yl)thiophene-2-carboxamide]		< 100 nM	101%
CN(C)C(=O)COc1ccc2c(c1)N(c1nc(-c3ccc(C(N)=O)s3)nc3c1CS(=O)(=O)C3)CC2 [Compound No. 2-81, 5-(4-(6-(2-(Dimethylamino)-2-oxoethoxy)indolin-1-yl)-6,6-dioxido-5,7-dihydrothieno[3,4-d]pyrimidin-2-yl)thiophene-2-carboxamide]		< 100 nM	113%
CN(C)C(=O)COc1ccc2c(c1)N(c1nc(-c3ccc(C#N)s3)nc3c1C[S+]([O-])C3)CC2 (stereo not shown) [Compound No. 2-82, 2-((1-(2-(5-Cyanothiophen-2-yl)-6-oxido-5,7-dihydrothieno[3,4-d]pyrimidin-4-yl)indolin-6-yl)oxy)-N,N-dimethylacetamide]	99%	< 100 nM	
CN(C)C(=O)COc1ccc2c(c1)N(c1nc(-c3ccc(C#N)s3)nc3c1CS(=O)(=O)C3)CC2 [Compound No. 2-83, 2-((1-(2-(5-Cyanothiophen-2-yl)-6,6-dioxido-5,7-dihydrothieno[3,4-d]pyrimidin-4-yl)indolin-6-yl)oxy)-N,N-dimethylacetamide]	97%	< 100 nM	
CN(C)C(=O)COc1ccc2c(c1)N(c1nc(-c3ccc(C#N)s3)nc3c1CCC3)CC2 [Compound No. 2-84, 2-((1-(2-(5-Cyanothiophen-2-yl)-6,7-dihydro-5H-cyclopenta[d]pyrimidin-4-yl)indolin-6-yl)oxy)-N,N-dimethylacetamide]	91%	< 100 nM	
CN(C)C(=O)COc1ccc2c(c1)N(c1nc(-c3ccc(Br)c(F)c3)nc3c1C[S+]([O-])C3)CC2 (stereo not shown) [Compound No. 2-86, 2-((1-(2-(4-Bromo-3-fluorophenyl)-6-oxido-5,7-dihydrothieno[3,4-d]pyrimidin-4-yl)indolin-6-yl)oxy)-N,N-dimethylacetamide]	111%	100 to 1000 nM	
O=C(COc1ccc2c(c1)N(c1nc(-c3ccc(Cl)s3)nc3c1CCC3)CC2)NC1CC1 [Compound No. 2-114, 2-((1-(2-(5-Chlorothiophen-2-yl)-6,7-dihydro-5H-cyclopenta[d]-pyrimidin-4-yl)indolin-6-yl)oxy)-N-cyclopropylacetamide]	38%		
COc1ccc(-c2nc3c(c(N4CCc5ccc(OCC(=O)N(C)C)cc54)n2)CS(=N)(=O)C3)cc1F (stereo not shown) [Compound No. 2-115, 2-((1-(2-(3-Fluoro-4-methoxyphenyl)-6-imino-6-oxido-5,7-dihydrothieno[3,4-d]pyrimidin-4-yl)indolin-6-yl)oxy)-N,N-dimethylacetamide]	106%	< 100 nM	
O=C(COc1ccc2c(c1)N(c1nc(-c3ccc(Cl)s3)nc3c1C[S+]([O-])C3)CC2)N1CCCC1 (stereo not shown) [Compound No. 2-116, 2-((1-(2-(5-Chlorothiophen-2-yl)-6-oxido-5,7-dihydrothieno[3,4-d]pyrimidin-4-yl)indolin-6-yl)oxy)-1-(pyrrolidin-1-yl)ethanone]	121%		
CN1CCN(C(=O)COc2ccc3c(c2)N(c2nc(-c4ccc(Cl)s4)nc4c2C[S+]([O-])C4)CC3)CC1 (stereo not shown) [Compound No. 2-117, 2-((1-(2-(5-Chlorothiophen-2-yl)-6-oxido-5,7-dihydrothieno[3,4-d]pyrimidin-4-yl)indolin-6-yl)oxy)-1-(4-methylpiperazin-1-yl)ethanone]	88%		
O=C(COc1ccc2c(c1)N(c1nc(-c3ccc(Cl)s3)nc3c1C[S+]([O-])C3)CC2)N1CCOCC1 (stereo not shown) [Compound No. 2-118, 2-((1-(2-(5-Chlorothiophen-2-yl)-6-oxido-5,7-dihydrothieno[3,4-d]pyrimidin-4-yl)indolin-6-yl)oxy)-1-morpholinoethanone]	93%		
